This passage reports viability results from patent publication US20220087987A1, “A METHOD FOR TREATING SWI/SNF COMPLEX-DEFICIENT CANCERS COMPRISING GLUTATHIONE (GSH) METABOLIC PATHWAY INHIBITOR” (National Cancer Center, priority 2018, published 2022).

Structures can show the parent of a compound that is named as a salt. Where two headings read alike, the source gives them in different places.

The nature of data set [1]: Drug library screen, cell viability (CellTiter-Glo). It is filed as cell-based, human. Conditions: human; HCT116 ARID1A-WT; 10 μM for 5 days; relative to cells treated with solvent (DMSO); read-out: Cell viability, WT. The procedure, abridged: (§1)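 ARID1A-WT and ARID1A-KO HCT116 cells screened against the library; viability read after 5 days by CellTiter-Glo luminescence, expressed relative to DMSO-treated cells. Hits: KO viability below 40% with WT viability above 80%.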
In general terms: ATP-based viability assays read luminescence as a measure of living cells.

The next data set concerns ARID1A-KO HCT116 cells. The description is as above. It is filed as cell-based, human. Conditions: Homo sapiens, HCT-116, 120 h, read-out: Cell viability, KO. In short, it runs like this:
as §1

Where [2] appears, read: HCT116 ARID1A-KO, 10 μM for 5 days, relative to cells treated with solvent (DMSO).

Usually viability stands for a read-out of living cells in per cent, often relative to untreated cells. Regarding `Oc1c2ccccc2c2c3c(cccc13)N=N2` [SP600125], the viability at 5 days, 10 μM in data set [1] came to 172%. In addition, in the data set on ARID1A-KO HCT116 cells (setting [2]), the viability at 10 µM came out at 105%.
In the same order, the values of `CC#C[C@]1(O)CC[C@H]2[C@@H]3CCC4=CC(=O)CCC4=C3[C@@H](c3ccc(N(C)C)cc3)C[C@@]21C` [Mifepristone] are 95.9% and 85.3%.
Regarding `NC(=O)c1cccc2cn(-c3ccc([C@@H]4CCCNC4)cc3)nc12` [MK-4827 (Niraparib), Niraparib], the viability at 5 days, 10 μM in data set [1] came out at 29.3%. Further, the viability at 10 µM with ARID1A-KO HCT116 cells (setting [2]) turned out to be 28.7%.
As to `CC(=O)N[C@@H](CSC(=O)[C@]1([C@@H](O)C(C)C)NC(=O)[C@H](C)[C@@H]1O)C(=O)O` [Lactacystin], the viability at 5 days, 10 μM in data set [1] was determined as 32.6%. The viability at 10 µM with ARID1A-KO HCT116 cells (setting [2]) came to 26.1%.
In the same order, the values of `OC[C@H]1NC[C@H](O)[C@@H](O)[C@@H]1O` [Deoxynojirimycin] are 106% and 121%.
Take `CNc1ccc2oc(C[C@H]3O[C@@]4(CC[C@H]3C)O[C@H]([C@H](C)C(=O)c3ccc[nH]3)[C@H](C)C[C@H]4C)nc2c1C(=O)O` [A23187]: the viability in data set [1] is 6.25%. Also, in the data set on ARID1A-KO HCT116 cells (setting [2]), the viability at 10 µM came to 8.67%.
As to `NC(=O)NO` [Hydroxyurea], in data set [1], the viability at 5 days, 10 μM came out at 157%. Also, the viability at 10 µM in the data set on ARID1A-KO HCT116 cells (setting [2]) is 117%.
`CC(C)C[C@H](NC(=O)[C@@H](O)[C@H](N)Cc1ccccc1)C(=O)O` [Bestatin]: in data set [1], the viability at 5 days, 10 μM turned out to be 68.6%. In the data set on ARID1A-KO HCT116 cells (setting [2]), the viability at 10 µM was determined as 66.2%.
In the same order, the values of `CCCCC[C@H](CC(=O)NO)C(=O)N[C@H](C(=O)N1CCC[C@H]1CO)C(C)C` [Actinonin] are 88.5% and 103%.
On to `N=C(N)NN` [Aminoguanidine, HCl], for which, in data set [1], the viability at 5 days, 10 μM is 188%. For the same compound, the viability at 10 µM in the data set on ARID1A-KO HCT116 cells (setting [2]) turned out to be 128%.
In the case of `CS(=O)(=O)Nc1ccc([N+](=O)[O-])cc1OC1CCCCC1` [NS-398], in data set [1], the viability at 5 days, 10 μM was found to be 177%. For the same compound, in the data set on ARID1A-KO HCT116 cells, the viability at 10 µM was 142%.
Regarding `COCCn1c2c([n+](Cc3cnccn3)c1C)C(=O)c1ccccc1C2=O` [YM155], in data set [1], the viability at 5 days, 10 μM was found to be 2.67%. In addition, in the data set on ARID1A-KO HCT116 cells (setting [2]), the viability at 10 µM was 3.24%.
In the same order, the values of `COc1cc(Nc2ncc3c(n2)-c2ccc(Cl)cc2C(c2c(F)cccc2OC)=NC3)ccc1C(=O)O` [MLN8237] are 36.8% and 39.1%.
On to `C[C@@H]1O[C@@H](O[C@H]2C[C@@H](O)[C@]3(CO)[C@H]4[C@H](O)C[C@]5(C)[C@@H](C6=CC(=O)OC6)CC[C@]5(O)[C@@H]4CC[C@]3(O)C2)[C@H](O)[C@H](O)[C@H]1O` [Ouabain], for which the viability in data set [1] was determined as 4.81%. Further, in the data set with ARID1A-KO HCT116 cells (setting [2]), the viability at 10 µM worked out at 5.12%.
Turning to `O=c1oc2c(O)c(O)cc3c(=O)oc4c(O)c(O)cc1c4c23` [Ellagic acid], the viability at 5 days, 10 μM in data set [1] came out at 127%. Moreover, the viability at 10 µM in the data set with ARID1A-KO HCT116 cells (setting [2]) is 161%.
In the case of `CC(C)C(=O)Nc1ccc([N+](=O)[O-])c(C(F)(F)F)c1` [Flutamide], the viability at 5 days, 10 μM in data set [1] worked out at 163%. Besides, in the data set on ARID1A-KO HCT116 cells (setting [2]), the viability at 10 µM amounted to 126%.
With `COc1ccc(Cl)cc1C(=O)NCCc1ccc(S(=O)(=O)NC(=O)NC2CCCCC2)cc1` [Glibenclamide], in data set [1], the viability at 5 days, 10 μM is 108%. Further, the viability at 10 µM with ARID1A-KO HCT116 cells (setting [2]) was 109%.
Turning to `CS(=O)(=O)c1ccc(C(=O)Nc2ccc(Cl)c(-c3ccccn3)c2)c(Cl)c1` [Vismodegib], in data set [1], the viability at 5 days, 10 μM amounted to 88.7%. Further, the viability at 10 µM in the data set with ARID1A-KO HCT116 cells (setting [2]) came to 109%.
In the same order, the values of `O=C(CCCCCN1C(=O)c2cccc3cccc(c23)C1=O)NO` [Scriptaid] are 6.95% and 5.74%.
In the same order, the values of `CC1=C(/C=C/C(C)=C/C=C/C(C)=C/C(=O)O)C(C)(C)CCC1` [tretinoin] are 77.7% and 96.3%.
The matching figures for `O=C(c1cc(Cc2n[nH]c(=O)c3ccccc23)ccc1F)N1CCN(C(=O)C2CC2)CC1` [Olaparib]: 20.9% and 19.5%.
Consider `Cc1ccc(Nc2nccc(N(C)c3ccc4c(C)n(C)nc4c3)n2)cc1S(N)(=O)=O` [pazopanib], for which, in data set [1], the viability at 5 days, 10 μM came to 19.8%. Moreover, the viability at 10 µM in the data set with ARID1A-KO HCT116 cells (setting [2]) was found to be 39.8%.
Turning to `CN(Cc1cnc2nc(N)nc(N)c2n1)c1ccc(C(=O)N[C@@H](CCC(=O)O)C(=O)O)cc1` [Methotrexate], in data set [1], the viability at 5 days, 10 μM is 43%. Further, the viability at 10 µM with ARID1A-KO HCT116 cells (setting [2]) was 43.9%.
With `Cc1ccc(NC(=O)c2ccc(CN3CCN(C)CC3)cc2)cc1Nc1nccc(-c2cccnc2)n1` [imatinib mesylate], the viability at 5 days, 10 μM in data set [1] came out at 37.2%. Moreover, the viability at 10 µM in the data set on ARID1A-KO HCT116 cells (setting [2]) was 55.4%.
Consider `Cc1ccc2nc(NCCN)c3ncc(C)n3c2c1` [BMS-345541], for which the viability at 5 days, 10 μM in data set [1] amounted to 11.9%. For the same compound, in the data set with ARID1A-KO HCT116 cells (setting [2]), the viability at 10 µM was found to be 19.7%.
Consider `NC(=O)c1ccc(I)c([N+](=O)[O-])c1` [BSI-201 (Iniparib), Iniparib], for which the viability at 5 days, 10 μM in data set [1] was determined as 63.5%. Moreover, the viability at 10 µM with ARID1A-KO HCT116 cells (setting [2]) worked out at 93.3%.
With `COc1cccc2c1C(=O)c1c(O)c3c(c(O)c1C2=O)C[C@@](O)(C(=O)CO)C[C@@H]3O[C@H]1C[C@H](N)[C@H](O)[C@H](C)O1` [Doxorubicin, HCl], the viability at 5 days, 10 μM in data set [1] turned out to be 4.81%. Moreover, the viability at 10 µM in the data set with ARID1A-KO HCT116 cells (setting [2]) came out at 4.14%.
Consider `COc1cccc2c1C(=O)c1c(O)c3c(c(O)c1C2=O)C[C@@](O)(C(C)=O)C[C@@H]3O[C@H]1C[C@H](N)[C@H](O)[C@H](C)O1` [Daunorubicin, HCl], for which, in data set [1], the viability at 5 days, 10 μM came to 5.21%. In the data set on ARID1A-KO HCT116 cells, the viability at 10 µM is 4.45%.
Regarding `O=C(CCCCCCC(=O)Nc1ccccc1)NO` [vorinostat], the viability at 5 days, 10 μM in data set [1] stood at 2.82%. Also, the viability at 10 µM in the data set on ARID1A-KO HCT116 cells (setting [2]) came out at 6.02%.
The matching figures for `O=C(O)c1ccccc1Nc1ccccc1` [N-phenylanthranilic acid]: 101% and 118%.
For the compound `CC1=C2C[C@H]3[C@@H](CC=C4C[C@@H](O)CC[C@@]43C)[C@@H]2CC[C@]12O[C@@H]1C[C@H](C)CN[C@H]1[C@H]2C` [cyclopamine], the viability in data set [1] was found to be 49.3%. Also, in the data set on ARID1A-KO HCT116 cells (setting [2]), the viability at 10 µM is 86.7%.
Take `N#CC[C@H](C1CCCC1)n1cc(-c2ncnc3[nH]ccc23)cn1` [Ruxolitinib]: the viability at 5 days, 10 μM in data set [1] worked out at 58.1%. Further, the viability at 10 µM in the data set with ARID1A-KO HCT116 cells (setting [2]) came out at 86.1%.
Consider `CO[C@H]1C[C@@H]2CC[C@@H](C)[C@@](O)(O2)C(=O)C(=O)N2CCCC[C@H]2C(=O)O[C@H]([C@H](C)C[C@@H]2CC[C@@H](OC(=O)C(C)(CO)CO)[C@H](OC)C2)CC(=O)[C@H](C)/C=C(\C)[C@@H](O)[C@@H](OC)C(=O)[C@H](C)C[C@H](C)/C=C/C=C/C=C/1C` [temsirolimus], for which, in data set [1], the viability at 5 days, 10 μM amounted to 82.1%. Moreover, in the data set with ARID1A-KO HCT116 cells (setting [2]), the viability at 10 µM turned out to be 75%.
The matching figures for `CCN(CC)CCNC(=O)c1c(C)[nH]c(/C=C2\C(=O)Nc3ccc(F)cc32)c1C` [sunitinib malate]: 3.23% and 5.95%.
The matching figures for `CC(=O)N[C@@H](CS)C(=O)O` [N-Acetyl-L-cysteine]: 186% and 139%.
In the case of `O=c1cc(-c2ccccc2)oc2cc(O)c(O)c(O)c12` [Baicalein], the viability at 5 days, 10 μM in data set [1] amounted to 94.6%. Besides, the viability at 10 µM with ARID1A-KO HCT116 cells (setting [2]) amounted to 93.7%.
In the case of `CC1=C2C(=O)[C@H]3[C@@H](CC=C4C[C@@H](O)CC[C@@]43C)[C@@H]2CC[C@]12O[C@@H]1C[C@H](C)CN[C@H]1[C@H]2C` [Jervine], the viability in data set [1] came to 74.4%. The viability at 10 µM in the data set on ARID1A-KO HCT116 cells (setting [2]) was 90.1%.
